Source: patent US6875451B2, “Compositions and methods for the treatment of primary and metastatic neoplastic diseases using arsenic compounds” (PolaRx Biopharmaceuticals Inc., priority 1997, dated 2005)

Tests used:
Type in all cases: cell-based
HCT-116 = assay: SRB growth assay, 6 days exposure, colon cancer; conditions: HCT-116, 6 days
Protocol: (§1) Arsenic trioxide (1 mg/ml, 10 mg/ampoule, manufactured by Taylor Pharmaceuticals, Decatur, Ill.) was tested at five concentrations each at 10-fold dilutions, i.e., 10^−5, 10^−6, 10^−7, 10^−8 and 10^−9 μg/ml.
(§2) The in vitro tests were performed by incubating the test cells in the presence of the indicated concentration of arsenic trioxide under standard culture conditions for a designated period of time, which is followed by a sulforhodamine B (SRB) protein assay to estimate cell viability or growth. The cell lines are organized into subpanels according to the origin of the cell lines, e.g., leukemia, breast cancer, etc. A description of the cell lines and method of testing is described in Monk et al. (1997, Anticancer Drug Des. 12:533-41) and Weinstein et al., (1997, Science 275:343-9), which are incorporated herein in their entirety.
(§3) The measurement of an effect is expressed in Percentage Growth (PG). The measured effect of the compound on a cell line is calculated according to one or the other of the following two expressions: If (Mean ODtest−Mean ODzero)≧0. then PG=100×(Mean ODtest−Mean ODzero)/(Mean ODctrl−Mean ODzero) If (Mean ODtest−Mean ODzero)<0. then PG=100×(Mean ODtest−Mean ODzero)/(Mean ODzero where: • Mean ODzero=the average of optical density measurements of SRB-derived color just before exposure of cells to the test compounds; • Mean ODtest=the average of optical density measurements of SRB-derived color after exposure of cells to the test compound for a designated period of time; and • Mean ODctrl=the average of optical density measurements of SRB-derived color after with no exposure of cells to the test compound for a designated period of time
(§4) The first two columns describe the subpanel (e.g., leukemia) and cell line (e.g., CCRF-CEM) involved. The next two columns list the Mean ODzero and Mean ODctrl; the next five columns list the Mean ODtest for each of five different concentrations. Each concentration is expressed as the log10 (molar or μg/ml). The next five columns list the calculated PGs for each concentration. The response parameters GI50, TGI and LC50 are interpolated values representing the concentrations at which the PG is +50, 0, and −50, respectively. Sometimes these response parameters cannot be obtained by interpolation. If, for instance, all of the PGs in a given row exceed +50, then none of the three parameters can be obtained by interpolation. In such a case, the value given for each response parameter is the highest concentration tested and is preceded by a “>” sign. This practice is extended similarly to the other possible situations where a response parameter cannot be obtained by interpolation.
(§5) In the first set, the cells from 56 different cancer cell lines were exposed to five concentrations of arsenic trioxide continuously for two days prior to performing the SRB assay. In the second set, the cells from 50 different cell lines (a subset of the first 56 cell lines, plus the renal cancer cell line 786-0) were exposed continuously for six days prior to the SRB assay.

HT29 = assay: SRB growth assay, 6 days exposure, colon cancer; conditions: HT29, 6 days
Protocol: as §1, §2, §3, §4, §5

KM12 = assay: SRB growth assay, 6 days exposure, colon cancer; conditions: KM12, 6 days
Protocol: as §1, §2, §3, §4, §5

IGROVI = assay: SRB growth assay, 6 days exposure, ovarian cancer; conditions: IGROV1, 6 days
Protocol: as §1, §2, §3, §4, §5

OVCAR-3 = assay: SRB growth assay, 6 days exposure, ovarian cancer; conditions: OVCAR-3, 6 days
Protocol: as §1, §2, §3, §4, §5

OVCAR-5 = assay: SRB growth assay, 6 days exposure, ovarian cancer; conditions: OVCAR-5, 6 days
Protocol: as §1, §2, §3, §4, §5

OVCAR-8 = assay: SRB growth assay, 6 days exposure, ovarian cancer; conditions: OVCAR-8, 6 days
Protocol: as §1, §2, §3, §4, §5

SK-OV-3 = assay: SRB growth assay, 6 days exposure, ovarian cancer; conditions: SK-OV-3, 6 days
Protocol: as §1, §2, §3, §4, §5

[1] = read-out: LC50 (the source's name)

arsenic trioxide was tested, and the TGI (HCT-116) was >1.26E−05, the “Mean Optical Densities” value (HCT-116; Log 10 Concentration −4.9) was 1.931 and the “Percent Growth” value (HCT-116; Log 10 Concentration −4.9) was 56%. For the same substance, the “Mean Optical Densities” value (HCT-116; Log 10 Concentration −5.9) was 3.284, the “Percent Growth” value (HCT-116; Log 10 Concentration −5.9) was 96% and the “Mean Optical Densities” value (HCT-116; Log 10 Concentration −6.9) was 3.381. For the same substance, the “Percent Growth” value (HCT-116; Log 10 Concentration −6.9) was 99%, the “Mean Optical Densities” value (HCT-116; Log 10 Concentration −7.9) was 3.289 and the “Percent Growth” value (HCT-116; Log 10 Concentration −7.9) was 96%. The “Mean Optical Densities” value (HCT-116; Log 10 Concentration −8.9) was 3.395, the “Percent Growth” value (HCT-116; Log 10 Concentration −8.9) was 99% and the CC50 (HCT-116; [1]) was > 12.6 µM. For the same substance, the TGI (HT29) was >1.26E−05, the “Mean Optical Densities” value (HT29; Log 10 Concentration −4.9) was 0.027 and the “Percent Growth” value (HT29; Log 10 Concentration −4.9) was 0%. For the same substance, the “Mean Optical Densities” value (HT29; Log 10 Concentration −5.9) was 1.476, the “Percent Growth” value (HT29; Log 10 Concentration −5.9) was 48% and the “Mean Optical Densities” value (HT29; Log 10 Concentration −6.9) was 2.706. The “Percent Growth” value (HT29; Log 10 Concentration −6.9) was 88%, the “Mean Optical Densities” value (HT29; Log 10 Concentration −7.9) was 2.988 and the “Percent Growth” value (HT29; Log 10 Concentration −7.9) was 98%. For the same substance, the “Mean Optical Densities” value (HT29; Log 10 Concentration −8.9) was 3.189, the “Percent Growth” value (HT29; Log 10 Concentration −8.9) was 104% and the CC50 (HT29; [1]) was > 12.6 µM. The TGI (KM12) was >1.26E−05, the “Mean Optical Densities” value (KM12; Log 10 Concentration −4.9) was 0.017 and the “Percent Growth” value (KM12; Log 10 Concentration −4.9) was 1%. The “Mean Optical Densities” value (KM12; Log 10 Concentration −5.9) was 0.036, the “Percent Growth” value (KM12; Log 10 Concentration −5.9) was 4% and the “Mean Optical Densities” value (KM12; Log 10 Concentration −6.9) was 0.507. For the same substance, the “Percent Growth” value (KM12; Log 10 Concentration −6.9) was 83%, the “Mean Optical Densities” value (KM12; Log 10 Concentration −7.9) was 0.533 and the “Percent Growth” value (KM12; Log 10 Concentration −7.9) was 87%. For the same substance, the “Mean Optical Densities” value (KM12; Log 10 Concentration −8.9) was 0.487, the “Percent Growth” value (KM12; Log 10 Concentration −8.9) was 80% and the CC50 (KM12; [1]) was > 12.6 µM. The TGI (IGROVI) was 6.62E−06, the “Mean Optical Densities” value (IGROVI; Log 10 Concentration −4.9) was 0.216 and the “Percent Growth” value (IGROVI; Log 10 Concentration −4.9) was −36%. For the same substance, the “Mean Optical Densities” value (IGROVI; Log 10 Concentration −5.9) was 2.877, the “Percent Growth” value (IGROVI; Log 10 Concentration −5.9) was 91% and the “Mean Optical Densities” value (IGROVI; Log 10 Concentration −6.9) was 3.204. For the same substance, the “Percent Growth” value (IGROVI; Log 10 Concentration −6.9) was 103%, the “Mean Optical Densities” value (IGROVI; Log 10 Concentration −7.9) was 3.056 and the “Percent Growth” value (IGROVI; Log 10 Concentration −7.9) was 98%. For the same substance, the “Mean Optical Densities” value (IGROVI; Log 10 Concentration −8.9) was 3.541, the “Percent Growth” value (IGROVI; Log 10 Concentration −8.9) was 115% and the CC50 (IGROVI; [1]) was > 12.6 µM. For the same substance, the TGI (OVCAR-3) was 2.36E−06, the “Mean Optical Densities” value (OVCAR-3; Log 10 Concentration −4.9) was 0.001 and the “Percent Growth” value (OVCAR-3; Log 10 Concentration −4.9) was −99%. The “Mean Optical Densities” value (OVCAR-3; Log 10 Concentration −5.9) was 0.482, the “Percent Growth” value (OVCAR-3; Log 10 Concentration −5.9) was 37% and the “Mean Optical Densities” value (OVCAR-3; Log 10 Concentration −6.9) was 1.124. For the same substance, the “Percent Growth” value (OVCAR-3; Log 10 Concentration −6.9) was 97%, the “Mean Optical Densities” value (OVCAR-3; Log 10 Concentration −7.9) was 1.128 and the “Percent Growth” value (OVCAR-3; Log 10 Concentration −7.9) was 98%. The “Mean Optical Densities” value (OVCAR-3; Log 10 Concentration −8.9) was 1.047, the “Percent Growth” value (OVCAR-3; Log 10 Concentration −8.9) was 90% and the TGI (OVCAR-5) was 7.53E−06. The “Mean Optical Densities” value (OVCAR-5; Log 10 Concentration −4.9) was 0.028, the “Percent Growth” value (OVCAR-5; Log 10 Concentration −4.9) was −26% and the “Mean Optical Densities” value (OVCAR-5; Log 10 Concentration −5.9) was 1.287. For the same substance, the “Percent Growth” value (OVCAR-5; Log 10 Concentration −5.9) was 91%, the “Mean Optical Densities” value (OVCAR-5; Log 10 Concentration −6.9) was 1.478 and the “Percent Growth” value (OVCAR-5; Log 10 Concentration −6.9) was 105%. For the same substance, the “Mean Optical Densities” value (OVCAR-5; Log 10 Concentration −7.9) was 1.460, the “Percent Growth” value (OVCAR-5; Log 10 Concentration −7.9) was 104% and the “Mean Optical Densities” value (OVCAR-5; Log 10 Concentration −8.9) was 1.433. For the same substance, the “Percent Growth” value (OVCAR-5; Log 10 Concentration −8.9) was 102%, the CC50 (OVCAR-5; [1]) was > 12.6 µM and the TGI (OVCAR-8) was 3.21E−06. For the same substance, the “Mean Optical Densities” value (OVCAR-8; Log 10 Concentration −4.9) was −0.001, the “Percent Growth” value (OVCAR-8; Log 10 Concentration −4.9) was −100% and the “Mean Optical Densities” value (OVCAR-8; Log 10 Concentration −5.9) was 1.437. The “Percent Growth” value (OVCAR-8; Log 10 Concentration −5.9) was 68%, the “Mean Optical Densities” value (OVCAR-8; Log 10 Concentration −6.9) was 2.242 and the “Percent Growth” value (OVCAR-8; Log 10 Concentration −6.9) was 107%. For the same substance, the “Mean Optical Densities” value (OVCAR-8; Log 10 Concentration −7.9) was 1.848, the “Percent Growth” value (OVCAR-8; Log 10 Concentration −7.9) was 88% and the “Mean Optical Densities” value (OVCAR-8; Log 10 Concentration −8.9) was 2.272. For the same substance, the “Percent Growth” value (OVCAR-8; Log 10 Concentration −8.9) was 109%, the TGI (SK-OV-3) was 5.27E−06 and the “Mean Optical Densities” value (SK-OV-3; Log 10 Concentration −4.9) was 0.020. For the same substance, the “Percent Growth” value (SK-OV-3; Log 10 Concentration −4.9) was −51%, the “Mean Optical Densities” value (SK-OV-3; Log 10 Concentration −5.9) was 1.247 and the “Percent Growth” value (SK-OV-3; Log 10 Concentration −5.9) was 84%. The “Mean Optical Densities” value (SK-OV-3; Log 10 Concentration −6.9) was 1.461, the “Percent Growth” value (SK-OV-3; Log 10 Concentration −6.9) was 99% and the “Mean Optical Densities” value (SK-OV-3; Log 10 Concentration −7.9) was 1.410. The “Percent Growth” value (SK-OV-3; Log 10 Concentration −7.9) was 96%, the “Mean Optical Densities” value (SK-OV-3; Log 10 Concentration −8.9) was 1.445 and the “Percent Growth” value (SK-OV-3; Log 10 Concentration −8.9) was 98%.
